# Key:
# Format in all cases: cell-based, human
# IGR-Heu tumor cells = test: Proteasome inhibition: CTL recognition (TNFβ release) of inhibitor-treated IGR-Heu tumor cells; conditions: 10 μM, FIG. 4A
# Method: FIG. 4: Processing of the preprocalcitonin16-25 peptide is proteasome- and TAP-independent. A. IGR-Heu target cells were incubated for 2 h at 37° C. in the presence or absence of the proteasome-specific inhibitor epoxomicin, and then Heu161 cells were added. The autologous Heu127 clone, recognizing on IGR-Heu a proteasome-dependent mutated α-actinin-4 peptide, was included as a positive control. TNFβ released in medium after 24 h of culture was measured as above. B. 293-EBNA cells were cotransfected with pCEP4 containing either cDNA 150 (upper panel) or the mutated α-actinin-4 cDNA (lower panel), with pcDNA3.1 containing an HLA-A*0201 construct, and with various amounts of vector pBJi-neo containing IPC47 cDNA. CTL clones Heu161 (upper panel) or Heu127 (lower panel) were then added. Controls included 293-EBNA cells transfected with HLA-A2 or pBJi-neo-IPC47 alone, and incubation of transfectants with either preprocalcitonin or α-actinin-4 peptides. Data shown are representative of four independent experiments.
# (§1) TNFβ was detected by measuring the cytotoxicity of the culture medium on TNF-sensitive WEHI-164c13 cells with a MTT colorimetric assay (ESPEVIK & NISSEN-MEYER, J Immunol Methods, 95, 99-105, 1986).
# For proteasomes and SP inhibition, 10^6 tumor cells were resuspended in 300 μl of media in the presence or absence of specific inhibitors. […]
# CTL clone Heu161 [1] = test: CTL stimulation (TNF release) by synthetic peptides loaded on HLA-A2+ MZ2-MEL.3.1 melanoma cells
# Method: (§2) FIG. 3: Identification of the antigenic peptide recognized by CTL clone Heu161. A. CTL stimulation with purified synthetic peptides. Peptides were loaded on allogeneic HLA-A2^+ MZ2-MEL.3.1 melanoma cells for 60 min at room temperature before addition of CTL clone Heu161. TNF release was measured 16 h later. Empty circles represent the results obtained with peptide SEQ ID NO: 1, full circles represent the results obtained with peptide SEQ ID NO: 2, empty squares represent the results obtained with peptide SEQ ID NO: 24, full squares represent the results obtained with peptide SEQ ID NO: 25 and empty diamonds represent the results obtained with peptide SEQ ID NO: 26. B. Lytic activity of CTL clone on peptide-pulsed cells. ^51Cr-labeled Heu-EBV-B cells were incubated over 60 min with the indicated concentrations of peptides before addition of CTL clone Heu161 at an E/T cell ratio of 10:1. Chromium release was measured after 4 h. Empty circles represent the results obtained with peptide SEQ ID NO: 1, full circles represent the results obtained with peptide SEQ ID NO: 2
# as §1
# We then prepared a series of calcitonin cDNA fragments truncated at their 5′ end and engineered to contain an initiation codon and a Kozak consensus sequence. […] Further trimming narrowed down the peptide-encoding region to residues 9-38 (FIG. 2B). Among a set of overlapping peptides covering this region, only two were recognized by CTL clone Heu161: VLLQAGSLHA (SEQ ID NO: 1) and LVLLQAGSLHA (SEQ ID NO: 2), which are identical, but with an additional leucine in the latter peptide. […] In a lysis assay, the decamer was slightly more efficient than the 11-mer peptide by a factor of about three (FIG. 3B). We concluded that the optimal antigenic peptide recognized by CTL clone Heu161 was VLLQAGSLHA (SEQ ID NO: 1) or preprocalcitonin16-25. This peptide corresponds exactly to the C-terminal part of the preprocalcitonin signal peptide (LE MOULLEC et al., FEBS Lett, 167, 93-7, 1984).
# CTL clone Heu161 [2] = test: Lytic activity of CTL clone on peptide-pulsed 51Cr-labeled Heu-EBV-B cells; conditions: E/T 10:1, 4 h chromium release, FIG. 3B
# Method: as §2
# Cytotoxic activity was measured by a conventional 4-h ^51Cr-release assay using triplicate cultures in round-bottomed 96-well plates. Percent specific cytotoxicity was calculated conventionally; SD were <5%. […]
Compound,effect on recognition by anti-preprocalcitonin CTL clone Heu161 (IGR-Heu tumor cells),"EC50 (CTL clone Heu161 [1]; HLA-A2+ melanoma cells loaded 60 min, TNF release after 16 h, FIG. 3A, read-out: peptide concentration giving half-maximal effect (sensitization to recognition by CTL Heu161)) [nM]",recognition of peptide by CTL clone Heu161 (CTL clone Heu161 [1]; overlapping synthetic peptides of preprocalcitonin),"efficiency in lysis assay, decamer relative to 11-mer (factor) (CTL clone Heu161 [2])"
CC[C@H](C)[C@H](NC(=O)[C@H]([C@@H](C)CC)N(C)C(C)=O)C(=O)N[C@H](C(=O)N[C@@H](CC(C)C)C(=O)[C@@]1(C)CO1)[C@@H](C)O [epoxomicin],no effect,,,
"VLLQAGSLHA [SEQ ID NO: 1, optimal antigenic peptide recognized by CTL clone Heu161, C-terminal part of the preprocalcitonin signal peptide]",,~10,recognized,about three
